Experimental data as given in article PMC6609550, “Blockade of the forward Na^+/Ca^2+ exchanger suppresses the growth of glioblastoma cells through Ca^2+‐mediated cell death” (British Journal of Pharmacology, 2019).

What was measured:
Format in all cases: cell-based, Human
reverse NCX = assay: Whole-cell patch-clamp recording of reverse-mode NCX currents in U87 cells; details: reverse NCX current measured at +50 mV, mean ± SEM, n = 4, read-out: IC50, blocking reverse NCX (currents)
Protocol: (§1) Whole‐cell patch‐clamp recording was performed using a Multiclamp 700B amplifier (Molecular Devices, Foster City, CA, USA) at room temperature. Voltage protocols were provided and current recorded via a DigiData‐1550B interface (Molecular Devices) controlled by pClamp 10 Software (Molecular Devices, RRID:SCR_011323). […] Internal solution consisted of (in mM): 120 CsCl, 20 NaCl, 2 MgCl2, 13 CaCl2, 2 Na2ATP, 20 BAPTA, and 10 HEPES at a pH 7.2. […] Series resistance was compensated by 75–85%. Linear leak and residual capacitance currents were subtracted online using a P/4 protocol of the pClamp 10. For the recording of the membrane currents related to the NCX, cells were held at −50 mV and depolarized to +60 mV, and then a voltage ramp starting from +60 to −120 mV was applied for 1,000 ms before returning back to −50 mV. The reverse and forward NCX currents were measured at +50 and −110 mV holding potentials respectively (Molinaro et al., 2008; Rahman, Inman, Kiss, & Janssen, 2012; Song, Chen, & Yu, 2014). Data were filtered at 3 KHz and digitized at sampling rates of 20 KHz. For drug application, cells were perfused with a VC‐6 Six Channel Perfusion Valve Control Systems (Warner Instruments, Greenwich, CT, USA) connected to a gravity‐fed perfusion systems.
(§2) Data are expressed as mean ± SEM and analysed by Prism 7 software, La Jolla, CA (GraphPad Prism, RRID:SCR_002798). The data and statistical analysis comply with the recommendations of the British Journal of Pharmacology on experimental design and analysis in pharmacology. Concentrations of the NCX blockers (IC50) exerting half‐maximal inhibition of NCX currents were obtained by fitting the concentration–response with the equation: I/I0*100%=Bottom+Top−Bottom/1+10^((^Log^IC50−C)*n) , where I 0 and I are current amplitudes measured in control and in the presence of NCX blockers, C is the logarithm of concentration, and n is the Hill coefficient. The statistical difference between two independent groups was analysed by Student's parametric unpaired t test. And the original data of more than two groups were assessed by the parametric one‐way ANOVA followed by a Tukey's post hoc test. The data for cell viability and Western blot were usually normalized to the control group, and were thus analysed by the non‐parametric Kruskal–Wallis test followed by a Dunn's post hoc test. Differences were considered to be significant when P < .05. Post hoc tests were conducted when the F value achieved the necessary level (P < .05) and there was no significant variance inhomogeneity.
(§3) We characterized the membrane currents associated with NCX activity in glioblastoma cells using whole‐cell patch‐clamp recording. […] The NCX current in its reverse mode (Ca^2+ entry) was measured at +50, and the forward‐mode current (Ca^2+ exit) was measured at −110 mV. The Ni^2+ (10 mM) was employed to inhibit and identify the NCX currents in its either reverse or forward mode as previously reported (Maack, Ganesan, Sidor, & O'Rourke, 2005).

forward NCX = assay: Whole-cell patch-clamp recording of forward-mode NCX currents in U87 cells; details: forward NCX current measured at −110 mV, mean ± SEM, n = 4, read-out: IC50, blocking forward NCX (currents)
Protocol: as §1, §2, §3

[Ca^2+]i in U87 cells = Ca2+ imaging (Fluo-4 AM) of U87 cells; details: for Effect on [Ca2+]i level in Ca2+-free solution / Effect on intracellular Ca2+ pool and ER Ca2+ transporting: Ca2+‐free solution; for Effect on intracellular Ca2+ pool and ER Ca2+ transporting: followed by 5‐μM thapsigargin; for Effect on [Ca2+]i level: solution containing 2‐mM Ca2+, bepridil or KB‐R7943 25 or 50 μM, CB‐DMB 2 and 4 μM
Protocol: (§4) Cells were cultured in 96‐well plates at 8 × 10^3 per well and loaded with the cell membrane‐permeable Ca^2+ dye Fluo‐4 AM (5 μM) in 100‐μl HEPES‐buffered solution for 50 min. The solution contained (mM): 135 NaCl, 3 KCl, 2 CaCl2, 1 MgCl2, 10 glucose, and 10 HEPES, supplemented with 1% FBS at pH 7.4. To prepare the Ca^2+‐free solution, 2‐mM CaCl2 was replaced with 1‐mM EGTA in the HEPES‐buffered solution. The 96‐well plate containing the Fluo‐4 AM‐loaded cells was mounted in a Leica TCS SP8 confocal system (Leica Microsystems, Wetzlar, Germany). The confocal microscope armed with 488‐nm laser light was employed to excite the dynamic fluorescent signals in time and synchronously, while test regents were added to cells. To do Na^+ imaging, Fluo‐4 AM was replaced with the cell membrane‐permeable Na^+ dye Asante NaTrium Green‐2 AM (ANG‐2 AM) at 5 μM, which was excited by 514‐nm laser light. Visual inspection and fluorescent imaging were carried out at room temperature. The imaging data were analysed with the software https://leica-las-af-lite.software.informer.com/ 2.5 (Leica). The imaging traces shown are representative of at least three separate experiments; 12–18 cells were imaged in each experiment.

[Na^+]i in U87 cells = Na+ imaging (ANG-2 AM) of U87 cells; details: bepridil 50 μM, KB‐R7943 50 μM, CB‐DMB 4 μM
Protocol: as §4

U87 cells = assay: Annexin V–FITC/PI apoptosis assay of U87 cells; details: bepridil 25 μM 6–48 hr, CB‐DMB 3.5 μM 6–48 hr, KB‐R7943 25 μM 20 hr, BAPTA‐AM 10 μM 18 hr, CC‐930 10 μM, PD169316 10 μM
Protocol: U87 cells were seeded in six‐well plates (Corning, Corning, NY, USA) with 1 × 10^6 cells per well and treated with NCX blockers, BAPTA‐AM, or MAPK inhibitors. Drug treatment was performed by the person who is blinded to the experimental groups. After treatment, cells were harvested in 15‐ml tubes and washed with cold sterile PBS. After being centrifuged, cells were fixed with 70% ethanol […] at 4°C for at least 1 hr. For propidium iodide (PI) staining, cells were washed one time with PBS and then were treated with ribonuclease A (RNase; 100 μg·ml^−1) for 30 min. PI (10 μg·ml^−1) was added, and stained cells were kept in the dark at 4°C until analysis. The number of cells analysed for each sample was 10,000 events. FACS analysis was performed using the Coulter CytoFlexS flow cytometer (Beckman Coulter, CA, USA), and the percentage of cells in the G0/G1, S, and G2/M phases was determined using cell cycle analysis software, ModFit LT 5.0 (Verity Software House, Topsham, ME, USA). For the apoptosis assay, cells were harvested and washed twice with cold PBS and resuspended at a density of 1 × 10^6 cells·ml^−1 in 100 μl of binding buffer containing 5 μl of Annexin V–FITC and 5 μl of PI working solution (100 μg·ml^−1). After incubation at room temperature for 15 min in the dark, 400 μl of binding buffer was added to each sample. Apoptosis was analysed by Coulter CytoFlexS flow cytometer (Beckman Coulter) for at least 10,000 events, and data were analysed with the software, CyExpert 2.0 (Beckman Coulter).

SMILES | IC50 (reverse NCX) | IC50 (forward NCX) | Effect on [Ca2+]i level in Ca2+-free solution ([Ca^2+]i in U87 cells) | Effect on intracellular Ca2+ pool and ER Ca2+ transporting ([Ca^2+]i in U87 cells) | Effect on [Ca2+]i level ([Ca^2+]i in U87 cells) | Effect on intracellular Na+ [Na+]i level ([Na^+]i in U87 cells) | Effect on apoptosis (Annexin V+ cells), compound alone (U87 cells)
CC(C)COCC(CN(Cc1ccccc1)c1ccccc1)N1CCCC1 (centres unmarked) [Bepridil, N‐benzyl‐N‐(3‐isobutoxy‐2‐pyrrolidin‐1‐yl‐propyl)aniline] | 15.6 ± 1.1 µM | 19.1 ± 1.2 µM | did not show [Ca^2+]i elevation or fluctuation | neither bepridil nor KB‐R7943 affect intracellular Ca^2+ pool and Ca^2+ transporting on the ER membrane | quick [Ca^2+]i increase and sustained [Ca^2+]i elevation | did not change | time‐dependent increase of apoptotic (Annexin V^+) cells
CS(=O)(=O)O.N=C(N)SCCc1ccc(OCc2ccc([N+](=O)[O-])cc2)cc1 [KB‐R7943, 2‐[4‐[(4‐nitrophenyl)methoxy]phenyl]ethyl ester carbamimidothioic acid methanesulfonate] | 14.3 ± 1.2 µM | 32.3 ± 1.3 µM | did not show [Ca^2+]i elevation or fluctuation | neither bepridil nor KB‐R7943 affect intracellular Ca^2+ pool and Ca^2+ transporting on the ER membrane | a short [Ca^2+]i descent in the beginning and a slow [Ca^2+]i increases ensuing | slightly decreased | caused G0/G1 arrest and apoptosis
